Experiments:
Format in all cases: in vivo
Chilo suppressalis = assay: Example B1: activity against Chilo suppressalis (striped rice stemborer), artificial diet; conditions: 144 h, 200 ppm, L2 larvae, 6 days after infestation, read-out: control (at least one of mortality, anti-feedant effect, growth inhibition)
Method in brief: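 First, artificial diet was treated with aqueous solutions prepared from 10'000 ppm DMSO stocks; second, after drying, L2 larvae (6-8/well) were added; third, effects were assessed at 6 days against untreated controls, counting control when any of three categories was higher.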

Diabrotica balteata = assay: Example B2: activity against Diabrotica balteata (corn root worm), maize sprouts; conditions: 96 h, L2 larvae, 4 days after infestation, read-out: effect in at least one of the two categories (mortality or growth inhibition)
Method in brief: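 At 200 ppm, test solutions diluted in water from 10′000 ppm DMSO stocks were spray-applied to maize sprouts set on agar. Once dry, each well received 6–10 second-instar larvae. Four days later, mortality and growth inhibition were compared with untreated controls.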

Euschistus heros = assay: Example B3: activity against Euschistus heros (neotropical brown stink bug), soybean leaves; conditions: for percent effect (mortality or growth inhibition) at 200 ppm: 120 h, N2 nymphs, 5 days after infestation, read-out: effect in at least one of the two categories (mortality or growth inhibition)
Description: Soybean leaves on agar in 24-well microtiter plates were sprayed with aqueous test solutions prepared from 10′000 ppm DMSO stock solutions. After drying the leaves were infested with N2 nymphs. The samples were assessed for mortality and growth inhibition in comparison to untreated samples 5 days after infestation. The following compounds gave an effect of at least 80% in at least one of the two categories (mortality or growth inhibition) at an application rate of 200 ppm: […]

Myzus persicae [1] = assay: Example B4: activity against Myzus persicae (green peach aphid), intrinsic activity; conditions: 120 h, test rate 12 ppm, 5 days after infestation
Method in brief: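 Mortality was read 5 days after infestation. Aphids on pea seedlings fed through a stretched Parafilm membrane on inverted 24-well plates containing sucrose solution mixed with test compound, which was diluted from 10′000 ppm DMSO stock.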

Plutella xylostella [2] = assay: Example B5: activity against Plutella xylostella (diamond back moth), artificial diet, eggs; conditions: 192 h, 8 days after infestation, read-out: effect in at least one of the two categories (mortality or growth inhibition)
Method in brief: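 Scoring at 8 days post-infestation compared mortality and growth inhibition with untreated controls, on diet treated at 200 ppm with water-diluted DMSO stock solutions. Diamondback moth eggs were placed on the dried diet in 24-well plates.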

Spodoptera littoralis = assay: Example B6: activity against Spodoptera littoralis (Egyptian cotton leaf worm), cotton leaf discs; conditions: foliar, 72 h, 200 ppm, L1 larvae, 3 days after infestation, read-out: control (at least one of mortality, anti-feedant effect, growth inhibition)
Method in brief: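 Spray application onto agar-supported cotton leaf discs used aqueous solutions derived from 10′000 ppm DMSO stocks. Once dry, discs were infested with five L1 larvae and evaluated after 3 days for mortality, anti-feeding and growth inhibition relative to untreated controls.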

Pseudoplusia includens = assay: Example B9: Pseudoplusia includens (soybean looper), larvicide, feeding/contact, soybean plants; conditions: Chrysodeixis includens; for percent effect (mortality or growth inhibition) at 50 ppm: 120 h, L2 larvae, 5 days after infestation, read-out: effect in at least one of the two categories (mortality or growth inhibition)
Description: Soybean plants were treated in a spray chamber, cut off and placed into petri dishes containing wet filter paper. 1d after application leaves were infested with 5 L2 larvae and covered with a fabric filter and plastic lids. 5 days after infestation the samples were assessed for mortality and growth inhibition. The following compounds gave an effect of at least 80% in at least one of the two categories (mortality or growth inhibition) at an application rate of 50 ppm: […]

[3] = tested on: Carpocapsa (Cydia) pomonella; assay: Example B10: Carpocapsa (Cydia) pomonella (codling moth), larvicide, feeding/contact, diet cubes; conditions: 336 h, L1 larvae, 14 days after infestation, read-out: effect in at least one of the two categories (mortality or growth inhibition)
Description: Diet cubes coated with paraffin were sprayed with diluted test solutions in an application chamber. After drying off the treated cubes (10 replicates) were infested with 1 L1 larvae. Samples were incubated at 26-27° C. and checked 14 days after infestation for mortality and growth inhibition. The following compounds gave an effect of at least 80% in at least one of the two categories (mortality or growth inhibition) at an application rate of 50 ppm: […]

Plutella xylostella [4] = assay: B14b: Plutella xylostella (diamond back moth), larvicide L3, feeding/contact, Chinese cabbage
From the text: Activity of compounds P5, P17 and P21 according to the preparatory examples and of a compound from WO 21/083936 against Spodoptera littoralis (Example B6 above), Chilo suppressalis (Example B1 above), Diabrotica balteata (Example B14a below), Plutella xylostella (Example B14b below) and Pseudoplusia includens (Example B9 above) is summarized in Table B14. B14a: Diabrotica balteata (Corn root worm). Larvicide, feeding/contact 3 Corn seedlings were placed on wetted filter paper in plastic cups, and 3 ml of diluted test solutions were pipetted onto them. The cups were infested with 10 L2 larvae and checked for mortality and growth regulation 5 days after treatment. B14b: Plutella xylostella (Diamond back moth). Larvicide L3, feeding/contact Chinese cabbage plants were sprayed with diluted test solutions in an application chamber. Cut off leaves were placed into petri dishes with wetted filter paper and infested 1 day after application with 10 L3 larvae. Samples were assessed 4 days after infestation for mortality and growth regulation.

Myzus persicae [5] = assay: Example B7a: Myzus persicae feeding/contact activity, sunflower leaf discs; conditions: foliar, 144 h, mixed ages, 6 days after infestation
Description: (§1) Sunflower leaf discs were placed onto agar in a 24-well microtiter plate and sprayed with aqueous test solutions prepared from 10′000 ppm DMSO stock solutions. After drying, the leaf discs were infested with an aphid population of mixed ages. The samples were assessed for mortality 6 days after infestation.

Myzus persicae [6] = assay: Example B7b: Myzus persicae feeding/contact activity, eggplant leaf discs; conditions: foliar, 144 h, mixed ages, 6 days after infestation
Description: as §1, with “Eggplant” for “Sunflower”

Row | Compound | percent control (mortality, anti-feedant effect or growth inhibition) at 200 ppm (Chilo suppressalis) | percent effect (mortality or growth inhibition) at 200 ppm (Diabrotica balteata) | mortality at 200 ppm (Euschistus heros) | mortality at 12 ppm (Myzus persicae [1]) | percent effect (mortality or growth inhibition) at 200 ppm (Plutella xylostella [2]) | percent control (mortality, anti-feedant effect or growth inhibition) at 200 ppm (Spodoptera littoralis) | percent effect (mortality or growth inhibition) at 50 ppm (Pseudoplusia includens) | mortality at 3 ppm (Pseudoplusia includens; Pseudoplusia includens) | percent effect (mortality or growth inhibition) at 50 ppm [3] | mortality at 3 ppm (Plutella xylostella [4]) | percent effect (mortality or growth inhibition) at 200 ppm (Euschistus heros) | mortality at 200 ppm (Myzus persicae [5]) | mortality at 0.8 ppm (Plutella xylostella [4]) | mortality at 0.8 ppm (Pseudoplusia includens; Pseudoplusia includens, 0.8 ppm) | mortality at 200 ppm (Myzus persicae [6])
1 | C[C@H](Nc1ncnc2c(Br)cc(Br)cc12)c1ncnn1-c1cc(C(N)=O)ncn1 [Compound P10, 6-[5-[(1S)-1-[(6,8-dibromoquinazolin-4-yl)amino]ethyl]-1,2,4-triazol-1-yl]pyrimidine-4-carboxamide] | ≥ 80% | ≥ 80% | 0% | ≥ 80% | ≥ 80% | ≥ 80% | ≥ 80% | 80% | ≥ 80% | 100% | – | – | – | – | –
2 | C[C@H](Nc1ncnc2c(C(F)(F)F)cc(I)cc12)c1ncnn1-c1cc(C(N)=O)ncn1 [Compound P1, 6-[5-[(1S)-1-[[6-iodo-8-(trifluoromethyl)quinazolin-4-yl]amino]ethyl]-1,2,4-triazol-1-yl]pyrimidine-4-carboxamide] | ≥ 80% | ≥ 80% | – | ≥ 80% | ≥ 80% | ≥ 80% | ≥ 80% | – | ≥ 80% | – | ≥ 80% | – | – | – | –
3 | CNC(=O)c1cc(-n2ncnc2[C@H](C)Nc2ncnc3c(I)cc(Cl)cc23)ncn1 [Compound P14, 6-[5-[(1S)-1-[(6-chloro-8-iodo-quinazolin-4-yl)amino]ethyl]-1,2,4-triazol-1-yl]-N-methyl-pyrimidine-4-carboxamide] | ≥ 80% | ≥ 80% | – | ≥ 80% | ≥ 80% | ≥ 80% | ≥ 80% | – | – | – | – | ≥ 80% | – | – | –
4 | CNC(=O)c1cc(-n2ncnc2[C@H](C)Nc2ncnc3c(C(F)(F)F)cc(Cl)cc23)ncn1 [Compound P3, 6-[5-[(1S)-1-[[6-chloro-8-(trifluoromethyl)quinazolin-4-yl]amino]ethyl]-1,2,4-triazol-1-yl]-N-methyl-pyrimidine-4-carboxamide] | ≥ 80% | ≥ 80% | – | ≥ 80% | ≥ 80% | ≥ 80% | ≥ 80% | – | ≥ 80% | – | ≥ 80% | – | – | – | –
5 | C[C@H](Nc1ncnc2c(Cl)cc(C(F)(F)F)cc12)c1ncnn1-c1ncccn1 [WO 21/083936 P.18, reference compound] | – | – | 0% | – | – | – | – | 40% | – | – | – | – | 65% | – | –
6 | C[C@H](Nc1ncnc2c(I)cc(Cl)cc12)c1ncnn1-c1ncc(C(N)=O)s1 [Compound P29, 2-[5-[(1S)-1-[(6-chloro-8-iodo-quinazolin-4-yl)amino]ethyl]-1,2,4-triazol-1-yl]thiazole-5-carboxamide] | ≥ 80% | ≥ 80% | – | ≥ 80% | ≥ 80% | ≥ 80% | – | – | – | – | – | ≥ 80% | – | – | –
7 | CC(Nc1ncnc2c(Br)cc(Br)cc12)c1ncnn1-c1ncccn1 (centres unmarked) [WO 21/083936 P.29, reference compound] | – | – | 0% | – | – | – | – | 30% | – | 60% | – | – | – | – | –
8 | C[C@H](Nc1ncnc2c(C(F)(F)F)cc(Cl)cc12)c1ncnn1-c1ncccn1 [WO 21/083936 P.24, reference compound] | – | – | 0% | – | – | – | – | – | – | – | – | – | 5% | 0% | –
9 | CCN(C)C(=O)c1cc(-n2ncnc2[C@H](C)N(C)c2ncnc3c(C(F)(F)F)cc(Cl)cc23)ncn1 [Compound P55, 6-[5-[(1S)-1-[[6-chloro-8-(trifluoromethyl)quinazolin-4-yl]-methyl-amino]ethyl]-1,2,4-triazol-1-yl]-N-ethyl-N-methyl-pyrimidine-4-carboxamide] | ≥ 80% | ≥ 80% | – | ≥ 80% | ≥ 80% | ≥ 80% | ≥ 80% | – | – | – | ≥ 80% | – | – | – | ≥ 80%
10 | C[C@@H](c1ncnn1-c1cc(C(=O)NCCC#N)ncn1)N(C)c1ncnc2c(C(F)(F)F)cc(Cl)cc12 [Compound P53, 6-[5-[(1S)-1-[[6-chloro-8-(trifluoromethyl)quinazolin-4-yl]-methyl-amino]ethyl]-1,2,4-triazol-1-yl]-N-(2-cyanoethyl)pyrimidine-4-carboxamide] | ≥ 80% | ≥ 80% | – | ≥ 80% | ≥ 80% | ≥ 80% | ≥ 80% | – | ≥ 80% | – | – | – | – | – | –
11 | C[C@H](Nc1ncnc2c(C(F)(F)F)cc(Cl)cc12)c1ncnn1-c1cc(C(=O)NCC#N)ncn1 [Compound P38, 6-[5-[(1S)-1-[[6-chloro-8-(trifluoromethyl)quinazolin-4-yl]amino]ethyl]-1,2,4-triazol-1-yl]-N-(cyanomethyl)pyrimidine-4-carboxamide] | ≥ 80% | ≥ 80% | – | ≥ 80% | ≥ 80% | ≥ 80% | ≥ 80% | – | – | – | ≥ 80% | – | – | – | ≥ 80%

Source: patent publication US20260132125A1, “PESTICIDALLY ACTIVE FUSED BICYCLIC HETEROAROMATIC COMPOUNDS” (priority 2022, published 2026)
